The values below come from US7858630B2, “D3 and 5-HT2A receptor modulators” (Hoffmann-La Roche Inc., priority 2008, dated 2010).

In experiment [1] the target is T1, human dopamine D3 receptor (Homo sapiens, UniProt P35462).
T1 construct: expressed in transfected cells; host or cells: HEK-293 EBNA cells, transient transfection; membrane preparation
The experiment is described as follows: Radioligand binding ([3H]-spiperone) to membranes of HEK-293 EBNA cells expressing human D3 receptor. To be noted: human D3, 0.5 nM [3H]-spiperone, HEK-293 EBNA membranes, 1 h at RT. The method in brief: (§1)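 Membranes from HEK-293 EBNA cells transiently transfected with the receptor were incubated 1 h at RT with ten test concentrations (10 μM–0.1 nM) and ~0.7 nM [3H]-spiperone (D2), 0.5 nM [3H]-spiperone (D3) or 1.1 nM [3H]-ketanserin (5-HT2A). Nonspecific binding was set with 10 μM spiperone, bound radioactivity was read by filtration and scintillation, and Ki was taken from IC50 via Cheng-Prusoff.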

Experiment [2] addresses T2, human dopamine D2 receptor (Homo sapiens, UniProt P14416).
T2 construct: expressed in transfected cells; host or cells: HEK-293 EBNA cells, transient transfection; membrane preparation
Description: Radioligand binding ([3H]-spiperone) to membranes of HEK-293 EBNA cells expressing human D2 receptor. To be noted: human D2, 0.7 nM [3H]-spiperone, HEK-293 EBNA membranes, 1 h at RT. The method in brief:
as §1

Experiment [3] deals with T3, human serotonin 5-HT2A receptor (Homo sapiens, UniProt P28223).
T3 construct: expressed in transfected cells; host or cells: HEK-293 EBNA cells, transient transfection; membrane preparation
T3 sequence (P28223 whole entry): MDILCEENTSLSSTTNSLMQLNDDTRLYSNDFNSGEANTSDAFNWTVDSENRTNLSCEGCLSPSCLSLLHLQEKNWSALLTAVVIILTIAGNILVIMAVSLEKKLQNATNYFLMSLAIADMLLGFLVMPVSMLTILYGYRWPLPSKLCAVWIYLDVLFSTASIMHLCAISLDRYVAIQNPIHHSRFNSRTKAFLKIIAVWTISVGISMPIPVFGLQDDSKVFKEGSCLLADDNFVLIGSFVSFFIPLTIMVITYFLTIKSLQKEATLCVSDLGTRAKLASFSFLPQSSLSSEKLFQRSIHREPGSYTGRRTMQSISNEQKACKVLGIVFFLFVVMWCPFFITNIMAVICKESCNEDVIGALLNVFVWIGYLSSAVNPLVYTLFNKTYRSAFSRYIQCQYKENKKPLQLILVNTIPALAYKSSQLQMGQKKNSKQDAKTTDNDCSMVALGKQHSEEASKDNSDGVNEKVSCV
The experiment is described as follows: Radioligand binding ([3H]-ketanserin) to membranes of HEK-293 EBNA cells expressing human 5-HT2A receptor. To be noted: 1.1 nM [3H]-ketanserin, HEK-293 EBNA membranes, 1 h at RT. The method in brief:
as §1

Each structure is given as a SMILES string.

The term Ki denotes a measure of affinity in units of concentration, obtained from inhibition or displacement.

T2 sequence (P14416 whole entry): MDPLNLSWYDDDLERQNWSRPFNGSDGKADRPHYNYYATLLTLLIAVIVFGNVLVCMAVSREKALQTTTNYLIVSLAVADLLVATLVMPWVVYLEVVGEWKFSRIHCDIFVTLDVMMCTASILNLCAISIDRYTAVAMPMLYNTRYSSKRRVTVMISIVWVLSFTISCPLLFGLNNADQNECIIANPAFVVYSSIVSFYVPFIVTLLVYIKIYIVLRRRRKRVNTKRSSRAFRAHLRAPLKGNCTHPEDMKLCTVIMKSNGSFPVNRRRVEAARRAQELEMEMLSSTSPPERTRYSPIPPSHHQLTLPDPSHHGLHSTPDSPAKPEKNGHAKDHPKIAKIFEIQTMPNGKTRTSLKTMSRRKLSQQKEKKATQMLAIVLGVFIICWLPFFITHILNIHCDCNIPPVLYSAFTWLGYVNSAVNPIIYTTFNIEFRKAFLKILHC
T1 sequence (P35462 whole entry): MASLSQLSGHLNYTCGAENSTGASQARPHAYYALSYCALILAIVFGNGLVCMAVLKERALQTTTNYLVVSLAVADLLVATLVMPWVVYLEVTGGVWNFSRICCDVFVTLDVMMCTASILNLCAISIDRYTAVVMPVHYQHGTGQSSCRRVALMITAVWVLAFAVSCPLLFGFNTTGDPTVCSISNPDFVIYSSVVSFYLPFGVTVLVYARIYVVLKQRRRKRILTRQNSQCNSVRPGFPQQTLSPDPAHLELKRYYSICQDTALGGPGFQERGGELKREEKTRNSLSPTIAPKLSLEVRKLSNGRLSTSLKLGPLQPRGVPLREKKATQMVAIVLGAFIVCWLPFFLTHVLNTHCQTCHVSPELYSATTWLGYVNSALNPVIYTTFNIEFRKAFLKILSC

As for `O=C(CC1(O)CCOCC1)N[C@H]1CC[C@H](CCN2CCN(c3noc4cc(F)c(F)cc34)CC2)CC1` [Example 61, N-trans-(4-{2-[4-(5,6-Difluoro-benzo[d]isoxazol-3-yl)-piperazin-1-yl]-ethyl}-cyclohexyl)-2-(4-hydroxy-tetrahydro-pyran-4-yl)-acetamide], the values for the Ki in experiment [1], in experiment [2] and in experiment [3] were 10.1 nM, 811 nM and 8.45 nM, respectively.

As to `Cc1cc(CC(=O)N[C@H]2CC[C@H](CCN3CCN(c4noc5cc(F)c(Cl)cc45)CC3)CC2)on1` [Example 82, N-trans-(4-{2-[4-(5-Chloro-6-fluoro-benzo[d]isoxazol-3-yl)-piperazin-1-yl]-ethyl}-cyclohexyl)-2-(3-methyl-isoxazol-5-yl)-acetamide], the Ki in experiment [1] stood at 1.37 nM; in experiment [2], 11100 nM; in experiment [3], 2.99 nM.

Turning to `O=C(C[C@@H]1CCCCO1)N[C@H]1CC[C@H](CCN2CCN(c3noc4cc(Cl)ccc34)CC2)CC1` [Example 50, N-trans-(4-{2-[4-(6-Chloro-benzo[d]isoxazol-3-yl)-piperazin-1-yl]-ethyl}-cyclohexyl)-2-(S)-tetrahydro-pyran-2-yl-acetamide], the figures for the Ki in experiment [1], in experiment [2] and in experiment [3] were 23.7 nM, 1160 nM and 4.78 nM, respectively.

Turning to `CC1(C)C[C@H](CC(=O)N[C@H]2CC[C@H](CCN3CCN(c4noc5ccc(F)cc45)CC3)CC2)CCO1` [Example 23, 2-((R)-2,2-Dimethyl-tetrahydro-pyran-4-yl)-N-(4-{2-[4-(5-fluoro-benzo[d]isoxazol-3-yl)-piperazin-1-yl]-ethyl}-cyclohexyl)-acetamide], the inhibition constant Ki was found to be 7.03 nM in experiment [1], 1060 nM in experiment [2] and 26.8 nM in experiment [3].

Take `COC1(C)CCC(CC(=O)N[C@H]2CC[C@H](CCN3CCN(c4noc5cc(Cl)ccc45)CC3)CC2)CC1` (stereo partly drawn) [Example 39, N-trans-(4-{2-[4-(6-Chloro-benzo[d]isoxazol-3-yl)-piperazin-1-yl]-ethyl}-cyclohexyl)-2-(4-methoxy-4-methyl-cyclohexyl)-acetamide]: the results for the inhibition constant Ki in experiment [1], in experiment [2] and in experiment [3] were 23.4 nM, 3800 nM and 4.14 nM, respectively.

`COC(CC(=O)N[C@H]1CC[C@H](CCN2CCN(c3noc4cc(C)ccc34)CC2)CC1)OC` [Example 103, 3,3-Dimethoxy-N-trans-(4-{2-[4-(6-methyl-benzo[d]isoxazol-3-yl)-piperazin-1-yl]-ethyl}-cyclohexyl)-propionamide]: the Ki is 6.96 nM in experiment [1], 206 nM in experiment [2] and 2.3 nM in experiment [3].

As to `COC1CCCC(C(=O)N[C@H]2CC[C@H](CCN3CCN(c4noc5ccc(F)cc45)CC3)CC2)C1` (stereo partly drawn) [Example 16, 3-Methoxy-cyclohexanecarboxylic acid N-trans-(4-{2-[4-(5-fluoro-benzo[d]isoxazol-3-yl)-piperazin-1-yl]-ethyl}-cyclohexyl)-amide], the Ki in experiment [1] was found to be 21.4 nM; in experiment [2], 1440 nM; in experiment [3], 14.4 nM.

Consider `COC(C)CC(=O)N[C@H]1CC[C@H](CCN2CCN(c3noc4cc(Cl)ccc34)CC2)CC1` (stereo partly drawn) [Example 37, N-trans-(4-{2-[4-(6-Chloro-benzo[d]isoxazol-3-yl)-piperazin-1-yl]-ethyl}-cyclohexyl)-3-methoxy-butyramide], for which the Ki turned out to be 14.9 nM in experiment [1], 350 nM in experiment [2] and 7.32 nM in experiment [3].

As for `C[C@H](O)CC(=O)N[C@H]1CC[C@H](CCN2CCN(c3noc4cc(Cl)ccc34)CC2)CC1` [Example 45, (S)-N-(4-{2-[4-(6-Chloro-benzo[d]isoxazol-3-yl)-piperazin-1-yl]-ethyl}-cyclohexyl)-3-hydroxy-butyramide], the results for the Ki in experiment [1], in experiment [2] and in experiment [3] were 15.8 nM, 356 nM and 9.21 nM, respectively.

In the case of `O=C(C[C@H]1C[C@H](CO)C1)N[C@H]1CC[C@H](CCN2CCN(c3noc4cc(F)c(Cl)cc34)CC2)CC1` [Example 79, N-trans-(4-{2-[4-(5-Chloro-6-fluoro-benzo[d]isoxazol-3-yl)-piperazin-1-yl]-ethyl}-cyclohexyl)-2-trans-(3-hydroxymethyl-cyclobutyl)-acetamide], the Ki in experiment [1] was determined as 5.47 nM; in experiment [2], 6870 nM; in experiment [3], 2.48 nM.

Regarding `Cc1cc2c(N3CCN(CC[C@H]4CC[C@H](NC(=O)CC5CC5)CC4)CC3)noc2cc1F` [Example 109, 2-Cyclopropyl-N-trans-(4-{2-[4-(6-fluoro-5-methyl-benzo[d]isoxazol-3-yl)-piperazin-1-yl]-ethyl}-cyclohexyl)-acetamide], the Ki in experiment [1] came out at 14.5 nM; in experiment [2], 10000 nM; in experiment [3], 32.6 nM.

In the case of `CO[C@H]1CC[C@H](CC(=O)N[C@H]2CC[C@H](CCN3CCN(c4noc5cc(C)ccc45)CC3)CC2)CC1` [Example 100, 2-trans-(4-Methoxy-cyclohexyl)-N-trans-(4-{2-[4-(6-methyl-benzo[d]isoxazol-3-yl)-piperazin-1-yl]-ethyl}-cyclohexyl)-acetamide], the Ki came out at 17.7 nM in experiment [1], 494 nM in experiment [2] and 5.3 nM in experiment [3].

In the case of `Cc1ccc2c(N3CCN(CC[C@H]4CC[C@H](NC(=O)CC5OCCCO5)CC4)CC3)noc2c1` [Example 101, 2-[1,3]Dioxan-2-yl-N-trans-(4-{2-[4-(6-methyl-benzo[d]isoxazol-3-yl)-piperazin-1-yl]-ethyl}-cyclohexyl)-acetamide], the Ki in experiment [1] worked out at 8.33 nM; in experiment [2] it was 384 nM; in experiment [3] it was 5.15 nM.

As to `O=C(N[C@H]1CC[C@H](CCN2CCN(c3noc4cc(Cl)ccc34)CC2)CC1)C(O)C(F)(F)F` (mixture of isomers) [Example 33, N-trans-(4-{2-[4-(6-Chloro-benzo[d]isoxazol-3-yl)-piperazin-1-yl]-ethyl}-cyclohexyl)-rac-3,3,3-trifluoro-2-hydroxy-propionamide], the results for the Ki in experiment [1], in experiment [2] and in experiment [3] were 14.8 nM, 362 nM and 12.4 nM, respectively.

Take `CCC(=O)N[C@H]1CC[C@H](CCN2CCN(c3noc4cc(C)ccc34)CC2)CC1` [Example 99, N-trans-(4-{2-[4-(6-Methyl-benzo[d]isoxazol-3-yl)-piperazin-1-yl]-ethyl}-cyclohexyl)-propionamide]: the inhibition constant (Ki) in experiment [1] amounted to 5.8 nM; in experiment [2] it was 207 nM; in experiment [3], 5.92 nM.

Take `O=C(CC1CCOCC1)N[C@H]1CC[C@H](CCN2CCN(c3noc4cc(F)ccc34)CC2)CC1` [Example 112, N-trans-(4-{2-[4-(6-Fluoro-benzo[d]isoxazol-3-yl)-piperazin-1-yl]-ethyl}-cyclohexyl)-2-(tetrahydro-pyran-4-yl)-acetamide]: the Ki in experiment [1] stood at 4.33 nM; in experiment [2], 119 nM; in experiment [3] it was 3.51 nM.

On to `CC(=O)N[C@H]1CC[C@H](CCN2CCN(c3noc4cc(F)c(C)cc34)CC2)CC1` [Example 106, N-trans-(4-{2-[4-(6-Fluoro-5-methyl-benzo[d]isoxazol-3-yl)-piperazin-1-yl]-ethyl}-cyclohexyl)-acetamide], for which the inhibitory constant (Ki) was 9.04 nM in experiment [1], 2380 nM in experiment [2] and 31.9 nM in experiment [3].

Consider `O=C(CC1CC1)N[C@H]1CC[C@H](CCN2CCN(c3noc4cc(F)c(Cl)cc34)CC2)CC1` [Example 75, N-trans-(4-{2-[4-(5-Chloro-6-fluoro-benzo[d]isoxazol-3-yl)-piperazin-1-yl]-ethyl}-cyclohexyl)-2-cyclopropyl-acetamide], for which the Ki turned out to be 1.65 nM in experiment [1], 1500 nM in experiment [2] and 5.92 nM in experiment [3].

With `NC(=O)CC(=O)N[C@H]1CC[C@H](CCN2CCN(c3noc4ccc(F)cc34)CC2)CC1` [Example 17, N-trans-(4-{2-[4-(5-Fluoro-benzo[d]isoxazol-3-yl)-piperazin-1-yl]-ethyl}-cyclohexyl)-malonamide], the figures for the inhibition constant Ki in experiment [1], in experiment [2] and in experiment [3] were 1.83 nM, 592 nM and 25.4 nM, respectively.

Regarding `Cc1cc2c(N3CCN(CC[C@H]4CC[C@H](NC(=O)CC5COCCO5)CC4)CC3)noc2cc1F` (stereo partly drawn) [Example 113, 2-[1,4]Dioxan-2-yl-N-trans-(4-{2-[4-(6-fluoro-5-methyl-benzo[d]isoxazol-3-yl)-piperazin-1-yl]-ethyl}-cyclohexyl)-acetamide], the Ki in experiment [1] was 25 nM; in experiment [2] it was over 10500 nM; in experiment [3], 14 nM.

In the case of `CC(=O)N[C@H]1CC[C@H](CCN2CCN(c3noc4cc(F)c(F)cc34)CC2)CC1` [Example 56, N-trans-(4-{2-[4-(5,6-Difluoro-benzo[d]isoxazol-3-yl)-piperazin-1-yl]-ethyl}-cyclohexyl)-acetamide], the Ki in experiment [1] came out at 5.83 nM; in experiment [2], 380 nM; in experiment [3] it was 12 nM.

Take `O=C(CC1OCCCO1)N[C@H]1CC[C@H](CCN2CCN(c3noc4ccc(F)cc34)CC2)CC1` [Example 24, 2-[1,3]Dioxan-2-yl-N-trans-(4-{2-[4-(5-fluoro-benzo[d]isoxazol-3-yl)-piperazin-1-yl]-ethyl}-cyclohexyl)-acetamide]: the Ki in experiment [1] was 4.55 nM; in experiment [2], 1070 nM; in experiment [3], 16.8 nM.

Consider `Cc1cc2c(N3CCN(CC[C@H]4CC[C@H](NC(=O)CC5OCCCO5)CC4)CC3)noc2cc1F` [Example 111, 2-[1,3]Dioxan-2-yl-N-trans-(4-{2-[4-(6-fluoro-5-methyl-benzo[d]isoxazol-3-yl)-piperazin-1-yl]-ethyl}-cyclohexyl)-acetamide], for which the Ki in experiment [1] was 10.6 nM; in experiment [2], 4040 nM; in experiment [3], 7.66 nM.
